Results published in patent publication US10973801B2, “Capsid assembly modulator dosing regimen” (Janssen Sciences Ireland Unlimited Company, priority 2018, dated 2021).
“And” between values parts separate entries of the source, which are not always exact repeats. Equal values may be shown once. “Also recorded” adds a separate entry of the source. Read-outs that look alike come from different tables or passages of the source. Marks after values point to notes of the source that are not given here.

Assays:
Format in all cases: in vivo, human
[1] = Safety and tolerability of single ascending doses in healthy Japanese volunteers
Method: A double-blind, placebo-controlled study was done to assess the safety, tolerability, and pharmacokinetics (PK) of Compound A. Thirty-two healthy adult Japanese volunteers were randomized into four cohorts. The volunteers were randomized 3:1 to receive a single dose of Compound A or placebo in a fasted state (see FIG. 4). The safety, tolerability and PK plasma profiles of Compound A were assessed after each dose. Full plasma PK profiles were determined up to 28 days after each single dose of Compound A. Urinary elimination was assessed in Cohort C (see FIG. 4) for 7 day. […] The treatment emergent adverse events (TEAEs) reported reported were hiccups, upper respiratory tract infection, nasal congestion, and cough. […] No significant laboratory abnormalities were discovered, most laboratory abnormalities were Grade 1.

[2] = Adverse events over 28-day treatment in treatment naïve chronic hepatitis B patients; conditions: for Amylase Increased (most common AEs) / At least one AE (on-treatment, 28 days) / Headache (most common AEs) / Worst Grade 1 AEs / Worst Grade 2 AEs / Worst Grade 3 AEs: n = 8
Description: In part 2 of this study (FIG. 1, sessions 8-9), the objective was to evaluate the safety, PK, and antiviral activity of Compound A in treatment naïve, chronic hepatitis B patients over a 28-day treatment period. The patient criteria were: • HBeAg-positive or negative • Plasma HBV DNA>2.0 log 10 IU/mL • ALT/AST<2.5×ULN • METAVIR stage<F3. […] Although no patients had Grade 3 or 4 AEs on treatment, one patient had Grade 1 & 2 ALT and Grade 1 AST elevations on treatment that rose to Grade 3 & 4 ALT and Grade 3 AST elevations in follow up.

[3] = Pharmacokinetics of single ascending doses in healthy Japanese volunteers; conditions: for Mean CL/F (SD) / Cmax / Vd/F / half-life / Tmax: fasted (n = 6); for Cmax / Vd/F / half-life / Tmax: human, plasma, oral; for Cmax: read-out: Mean Cmax (SD); for Vd/F: read-out: Mean Vd/F (SD); for half-life: read-out: Mean t1/2 term (SD) (converted); for Tmax: read-out: Median tmax
Method: A double-blind, placebo-controlled study was done to assess the safety, tolerability, and pharmacokinetics (PK) of Compound A. Thirty-two healthy adult Japanese volunteers were randomized into four cohorts. The volunteers were randomized 3:1 to receive a single dose of Compound A or placebo in a fasted state (see FIG. 4). The safety, tolerability and PK plasma profiles of Compound A were assessed after each dose. Full plasma PK profiles were determined up to 28 days after each single dose of Compound A. Urinary elimination was assessed in Cohort C (see FIG. 4) for 7 day.
The PKs were dose-dependent in all four treatment cohorts. […] The inter-subject variability, expressed as % CV, was low to moderate and similar across dose levels.

C[C@H](NS(=O)(=O)c1cc(C(=O)Nc2ccc(F)c(C#N)c2)n(C)c1)C(F)(F)F [Compound A]
Deaths ([1]; 25 mg single dose (n = 6)): 0
Grade 2 AEs: Bilirobin increased ([1]; 25 mg single dose (n = 6)): 0
Grade 2 AEs: Cholesterol increased ([1]; 25 mg single dose (n = 6)): 0
Grade 2 AEs: Fibrinogen decreased ([1]; 25 mg single dose (n = 6)): 0
Grade 2 AEs: Leukocytes decreased ([1]; 25 mg single dose (n = 6)): 0
Grade 2 AEs: Triglycerides increased ([1]; 25 mg single dose (n = 6)): 1
SAEs ([1]; 25 mg single dose (n = 6)): 0
Treatment-emergent AEs Related to Compound A ([1]; 25 mg single dose (n = 6)): 0
Volunteers with ≥0.1 AE (treatment-emergent AEs) ([1]; 25 mg single dose (n = 6)): 0
Deaths ([1]; 150 mg single dose (n = 6)): 0
Grade 2 AEs: Bilirobin increased ([1]; 150 mg single dose (n = 6)): 0
Grade 2 AEs: Cholesterol increased ([1]; 150 mg single dose (n = 6)): 0
Grade 2 AEs: Fibrinogen decreased ([1]; 150 mg single dose (n = 6)): 0
Grade 2 AEs: Leukocytes decreased ([1]; 150 mg single dose (n = 6)): 0
Grade 2 AEs: Triglycerides increased ([1]; 150 mg single dose (n = 6)): 0
SAEs ([1]; 150 mg single dose (n = 6)): 0
Treatment-emergent AEs Related to Compound A ([1]; 150 mg single dose (n = 6)): 0
Volunteers with ≥0.1 AE (treatment-emergent AEs) ([1]; 150 mg single dose (n = 6)): 2
Deaths ([1]; 300 mg single dose (n = 6)): 0
Grade 2 AEs: Bilirobin increased ([1]; 300 mg single dose (n = 6)): 0
Grade 2 AEs: Cholesterol increased ([1]; 300 mg single dose (n = 6)): 0
Grade 2 AEs: Fibrinogen decreased ([1]; 300 mg single dose (n = 6)): 0
Grade 2 AEs: Leukocytes decreased ([1]; 300 mg single dose (n = 6)): 0
Grade 2 AEs: Triglycerides increased ([1]; 300 mg single dose (n = 6)): 1
SAEs ([1]; 300 mg single dose (n = 6)): 0
Treatment-emergent AEs Related to Compound A ([1]; 300 mg single dose (n = 6)): 0
Volunteers with ≥0.1 AE (treatment-emergent AEs) ([1]; 300 mg single dose (n = 6)): 0
Deaths ([1]; 500 mg single dose (n = 6)): 0
Grade 2 AEs: Bilirobin increased ([1]; 500 mg single dose (n = 6)): 0
Grade 2 AEs: Cholesterol increased ([1]; 500 mg single dose (n = 6)): 0
Grade 2 AEs: Fibrinogen decreased ([1]; 500 mg single dose (n = 6)): 0
Grade 2 AEs: Leukocytes decreased ([1]; 500 mg single dose (n = 6)): 0
Grade 2 AEs: Triglycerides increased ([1]; 500 mg single dose (n = 6)): 0
SAEs ([1]; 500 mg single dose (n = 6)): 0
Treatment-emergent AEs Related to Compound A ([1]; 500 mg single dose (n = 6)): 0
Volunteers with ≥0.1 AE (treatment-emergent AEs) ([1]; 500 mg single dose (n = 6)): 2
Deaths ([1]; Total (n = 32)): 0
Grade 2 AEs: Bilirobin increased ([1]; Total (n = 32)): 0
Grade 2 AEs: Cholesterol increased ([1]; Total (n = 32)): 0
Grade 2 AEs: Fibrinogen decreased ([1]; Total (n = 32)): 0
Grade 2 AEs: Leukocytes decreased ([1]; Total (n = 32)): 0
Grade 2 AEs: Triglycerides increased ([1]; Total (n = 32)): 2
SAEs ([1]; Total (n = 32)): 0
Treatment-emergent AEs Related to Compound A ([1]; Total (n = 32)): 0
Volunteers with ≥0.1 AE (treatment-emergent AEs) ([1]; Total (n = 32)): 4
Grade 3 or 4 laboratory abnormalities ([1]; single dose 25-500 mg, fasted): No Grade 3 or 4 abnormalities were reported
SAEs and premature discontinuation for an AE ([1]; single dose 25-500 mg, fasted): No volunteers experienced an SAE or prematurely discontinued the study for an AE
severity of treatment emergent adverse events (TEAEs) ([1]; single dose 25-500 mg, fasted): All TEAEs were mild
tolerability ([1]; single dose 25-500 mg, fasted): well tolerated
Amylase Increased (most common AEs) ([2]; 25 mg (100 mg Day 1)): 2 (25)** n (%)
At least one AE (on-treatment, 28 days) ([2]; 25 mg (100 mg Day 1)): 5 n (%) and 5 (63) n (%)
Headache (most common AEs) ([2]; 25 mg (100 mg Day 1)): 2 (25) n (%)
Worst Grade 1 AEs ([2]; 25 mg (100 mg Day 1)): 3 (38) n (%)
Worst Grade 2 AEs ([2]; 25 mg (100 mg Day 1)): 1 (13) n (%)
Worst Grade 3 AEs ([2]; 25 mg (100 mg Day 1)): 1 (13) n (%)
ECG changes and vital sign abnormalities ([2]; 25 mg and 75 mg, 28 days): no patients showed clinically significant ECG changes or persistent/worsening vital sign abnormalities
serious AEs, discontinuations, dose-limiting toxicities ([2]; 25 mg and 75 mg, 28 days): no serious adverse events (SAES) or adverse events (AEs) of clinical concern and no treatment discontinuations; also recorded: no serious AEs, no discontinuations due to AEs, and no dose-limiting toxicities
treatment-emergent Grade 3 or 4 laboratory abnormalities ([2]; 25 mg and 75 mg, 28 days): No treatment-emergent Grade 3 or 4 laboratory abnormalities were reported, with the exception of the Grade 3 amylase increase
Amylase Increased (most common AEs) ([2]; 75 mg): 0 n (%)
At least one AE (on-treatment, 28 days) ([2]; 75 mg): 4 n (%) and 4 (50) n (%)
Headache (most common AEs) ([2]; 75 mg): 0 n (%)
Worst Grade 1 AEs ([2]; 75 mg): 2 (25) n (%)
Worst Grade 2 AEs ([2]; 75 mg): 1 (13) n (%)
Worst Grade 3 AEs ([2]; 75 mg): 0 (0)* n (%)
patients who experienced at least one AE during treatment ([2]; both Compound A arms pooled (9/16)): 56%
Mean CL/F (SD) ([3]; 25 mg single dose): 1.03 (0.33) L/h
Mean CL/F (SD) ([3]; 160 mg single dose): 0.929 (0.24) L/h
Mean CL/F (SD) ([3]; 300 mg single dose): 0.852 (0.17) L/h
Mean CL/F (SD) ([3]; 500 mg single dose): 0.919 (0.23) L/h
dose dependence of PKs ([3]; all four treatment cohorts): dose-dependent
Cmax ([3]; 25 mg single dose): 375 ng/mL
Vd/F ([3]; 25 mg single dose): 132 L
half-life ([3]; 25 mg single dose): 106 h
Tmax ([3]; 25 mg single dose): 1.75 h
Cmax ([3]; 160 mg single dose): 296 ng/mL
Vd/F ([3]; 160 mg single dose): 126 L
half-life ([3]; 160 mg single dose): 100 h
Tmax ([3]; 160 mg single dose): 3 h
Cmax ([3]; 300 mg single dose): 308 ng/mL
Vd/F ([3]; 300 mg single dose): 1140 L
half-life ([3]; 300 mg single dose): 116 h
Tmax ([3]; 300 mg single dose): 3 h
Cmax ([3]; 500 mg single dose): 328 ng/mL
Vd/F ([3]; 500 mg single dose): 119 L
half-life ([3]; 500 mg single dose): 95.6 h
Tmax ([3]; 500 mg single dose): 1.75 h
administered dose excreted via the kidneys ([3]; single dose 300 mg, Cohort C): 18%
unchanged drug excreted in urine ([3]; single dose 300 mg, Cohort C, 7 day): 53.9 mg
